TGI data for 18 molecules are collected here from PubChem BioAssay (NCI).

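Test compounds were applied to cells in 96-well plates for 48 hours at 5 doses. TGI: total growth inhibition.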 Where only a bound is given, the exact number is not on record here.

The first assay has as its system HCC-2998 colon. The assay is described as follows: DTP human tumour cell line panel, 48 h.
As for `O=C1C/C(=C/c2ccc(/C=C3/CC(=O)N(c4cccc(Br)c4)C3=O)cc2)C(=O)N1c1cccc(Br)c1`, the TGI was above 100 µM.

With `CCOC(C[C@H](O)[C@H]1COC(=S)S1)OCC`, the TGI is above 100 µM.

The molecule `CCCCCCn1c(SCC)c2ccccc2c1-c1nc(F)nc(F)n1` had a total growth inhibition concentration (TGI) above 100 µM.

In turn, `CN(C(=O)C12C3C4C1C1C2C3C41I)C(C)(C)C` (stereo unspecified) registered a TGI above 100 µM.

As for `CC(=O)/C(=C\c1ccco1)C(=O)Nc1ccccc1`, the TGI is above 100 µM.

Consider `NCC1(N2CCOCC2)C2CCCC21CO` (stereo unspecified), for which the TGI is above 100 µM.

Turning to `CC#COP(=O)(OCC)OCC`, the TGI is above 100 µM.

For the molecule `C=CCONC(=O)c1ccc(Cl)cc1`, the TGI is above 100 µM.

As to `O=C(CC1Sc2ccccc2NC1=O)Nc1cc(Cl)ccc1Cl` (stereo unspecified), the concentration for total growth inhibition (TGI) is above 100 µM.

In turn, `COc1cc(/C=C/C(=O)c2sc(-n3nc(-c4ccccc4)cc3-c3ccccc3)nc2C)ccc1O` had a concentration for total growth inhibition (TGI) above 100 µM.

`O=C(CCn1[nH]c(=O)c(Cl)c(Cl)c1=O)NOCCCc1ccccc1` came in with a TGI above 100 µM.

`CC(C)=CCCC1(C)C=Cc2c(c(C)cc3c2[nH]c2cc(O)ccc23)O1` (stereo unspecified) gave a TGI above 25 µM.

The molecule `COc1cc(NC(C)=O)c2[nH]c3c(C)cc(NC(C)=O)c(C)c3c2c1` gave a TGI above 100 µM.

The molecule `O=P(O)(OCC(O)O)OCC(O)O` yielded a TGI above 100 µM.

Another assay has as its system SN12C renal. Put plainly: DTP human tumour cell line panel, 48 h.
Consider `O=C1C/C(=C/c2ccc(/C=C3/CC(=O)N(c4cccc(Br)c4)C3=O)cc2)C(=O)N1c1cccc(Br)c1`, for which the TGI is above 100 µM.

On to `CCOC(C[C@H](O)[C@H]1COC(=S)S1)OCC`, for which the TGI was above 100 µM.

`CCCCCCn1c(SCC)c2ccccc2c1-c1nc(F)nc(F)n1` came in with a total growth inhibition concentration (TGI) above 100 µM.

The molecule `CN(C(=O)C12C3C4C1C1C2C3C41I)C(C)(C)C` (stereo unspecified) came in with a TGI above 100 µM.

`Cn1c(O)c(C(=O)Nc2cccs2)c(=O)[nH]c1=S` gave a total growth inhibition concentration (TGI) of 74.6 µM.

`CC(=O)/C(=C\c1ccco1)C(=O)Nc1ccccc1` gave a TGI above 100 µM.

Molecule `NCC1(N2CCOCC2)C2CCCC21CO` (stereo unspecified) came in with a TGI above 100 µM.

Consider `CC#COP(=O)(OCC)OCC`, for which the TGI is above 100 µM.

In turn, `C=CCONC(=O)c1ccc(Cl)cc1` yielded a concentration for total growth inhibition (TGI) above 100 µM.

For the molecule `O=C(CC1Sc2ccccc2NC1=O)Nc1cc(Cl)ccc1Cl` (stereo unspecified), the TGI is above 100 µM.

Molecule `COc1cc(/C=C/C(=O)c2sc(-n3nc(-c4ccccc4)cc3-c3ccccc3)nc2C)ccc1O` gave a TGI above 100 µM.

Turning to `O=C(CCn1[nH]c(=O)c(Cl)c(Cl)c1=O)NOCCCc1ccccc1`, the total growth inhibition concentration (TGI) was above 100 µM.

On to `CC(C)=CCCC1(C)C=Cc2c(c(C)cc3c2[nH]c2cc(O)ccc23)O1` (stereo unspecified), for which the TGI was above 25 µM.

In the case of `COc1cc(NC(C)=O)c2[nH]c3c(C)cc(NC(C)=O)c(C)c3c2c1`, the TGI was above 100 µM.

`COc1cc(/C=C\c2ccccn2)cc(OC)c1OC` returned a TGI above 100 µM.

As for `CCOC(=O)CSc1ccnc(=O)[nH]1`, the TGI is above 100 µM.

For the molecule `c1ccc(Nc2nnc(CSc3nc(-c4ccccc4)c(-c4ccccc4)[nH]3)s2)cc1`, the TGI was 35 µM.

The subject of a further assay is SK-MEL-5 melanoma. Put plainly: DTP human tumour cell line panel, 48 h.
Molecule `O=C1C/C(=C/c2ccc(/C=C3/CC(=O)N(c4cccc(Br)c4)C3=O)cc2)C(=O)N1c1cccc(Br)c1` registered a TGI above 100 µM.

For `CCOC(C[C@H](O)[C@H]1COC(=S)S1)OCC`, the TGI is above 100 µM.

Take `CCCCCCn1c(SCC)c2ccccc2c1-c1nc(F)nc(F)n1`: the TGI was above 100 µM.

`CN(C(=O)C12C3C4C1C1C2C3C41I)C(C)(C)C` (stereo unspecified) showed a TGI above 100 µM.

`Cn1c(O)c(C(=O)Nc2cccs2)c(=O)[nH]c1=S` gave a total growth inhibition concentration (TGI) of 26.9 µM.

The molecule `CC(=O)/C(=C\c1ccco1)C(=O)Nc1ccccc1` returned a TGI above 100 µM.

`NCC1(N2CCOCC2)C2CCCC21CO` (stereo unspecified) showed a TGI above 100 µM.

`CC#COP(=O)(OCC)OCC` showed a TGI above 100 µM.

`C=CCONC(=O)c1ccc(Cl)cc1`: the TGI is above 100 µM.

On to `O=C(CC1Sc2ccccc2NC1=O)Nc1cc(Cl)ccc1Cl` (stereo unspecified), for which the TGI is above 100 µM.

`COc1cc(/C=C/C(=O)c2sc(-n3nc(-c4ccccc4)cc3-c3ccccc3)nc2C)ccc1O` registered a TGI above 100 µM.

As to `O=C(CCn1[nH]c(=O)c(Cl)c(Cl)c1=O)NOCCCc1ccccc1`, the TGI is above 100 µM.

For `CC(C)=CCCC1(C)C=Cc2c(c(C)cc3c2[nH]c2cc(O)ccc23)O1` (stereo unspecified), the TGI was above 25 µM.

`COc1cc(NC(C)=O)c2[nH]c3c(C)cc(NC(C)=O)c(C)c3c2c1` yielded a TGI above 100 µM.

For the molecule `COc1cc(/C=C\c2ccccn2)cc(OC)c1OC`, the TGI is above 100 µM.

As to `O=P(O)(OCC(O)O)OCC(O)O`, the TGI was above 100 µM.

In turn, `CCOC(=O)CSc1ccnc(=O)[nH]1` yielded a TGI above 100 µM.

Consider `c1ccc(Nc2nnc(CSc3nc(-c4ccccc4)c(-c4ccccc4)[nH]3)s2)cc1`, for which the total growth inhibition concentration (TGI) turned out to be 28.5 µM.

The next assay concerns SW-620 colon. Put plainly: DTP human tumour cell line panel, 48 h.
`O=C1C/C(=C/c2ccc(/C=C3/CC(=O)N(c4cccc(Br)c4)C3=O)cc2)C(=O)N1c1cccc(Br)c1` gave a TGI above 100 µM.

Regarding `CCOC(C[C@H](O)[C@H]1COC(=S)S1)OCC`, the concentration for total growth inhibition (TGI) was above 100 µM.

Molecule `CCCCCCn1c(SCC)c2ccccc2c1-c1nc(F)nc(F)n1` returned a TGI above 100 µM.

Molecule `CN(C(=O)C12C3C4C1C1C2C3C41I)C(C)(C)C` (stereo unspecified) showed a TGI above 100 µM.

As for `Cn1c(O)c(C(=O)Nc2cccs2)c(=O)[nH]c1=S`, the TGI stood at 87.6 µM.

For `CC(=O)/C(=C\c1ccco1)C(=O)Nc1ccccc1`, the TGI is above 100 µM.

Regarding `NCC1(N2CCOCC2)C2CCCC21CO` (stereo unspecified), the TGI is above 100 µM.

Consider `CC#COP(=O)(OCC)OCC`, for which the TGI is above 100 µM.

Molecule `C=CCONC(=O)c1ccc(Cl)cc1` came in with a TGI above 100 µM.

Take `O=C(CC1Sc2ccccc2NC1=O)Nc1cc(Cl)ccc1Cl` (stereo unspecified): the TGI was above 100 µM.

`COc1cc(/C=C/C(=O)c2sc(-n3nc(-c4ccccc4)cc3-c3ccccc3)nc2C)ccc1O` gave a concentration for total growth inhibition (TGI) above 100 µM.

`O=C(CCn1[nH]c(=O)c(Cl)c(Cl)c1=O)NOCCCc1ccccc1`: the total growth inhibition concentration (TGI) is above 100 µM.

`CC(C)=CCCC1(C)C=Cc2c(c(C)cc3c2[nH]c2cc(O)ccc23)O1` (stereo unspecified): the TGI is above 25 µM.

In turn, `COc1cc(NC(C)=O)c2[nH]c3c(C)cc(NC(C)=O)c(C)c3c2c1` had a TGI above 100 µM.

Molecule `COc1cc(/C=C\c2ccccn2)cc(OC)c1OC` gave a TGI above 100 µM.

Molecule `O=P(O)(OCC(O)O)OCC(O)O` returned a TGI above 100 µM.

As for `CCOC(=O)CSc1ccnc(=O)[nH]1`, the TGI is above 100 µM.

As usually defined, the TGI is the concentration at which net growth stops. A lower TGI goes with more potent growth arrest.
